# Measured values: PubChem BioAssay (NCI)
#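 The compound was tested at five concentrations on cells cultured in 96-well plates, with a 48-hour exposure period. The concentration for 50% growth inhibition is given as GI50. TGI denotes the concentration required for complete inhibition of growth.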
# Tested on: PC-3 prostate
# Assay: growth of human tumour cells (NCI), 48 h
Compound,GI50,TGI
CC1=C[C@H]2c3c(c(O)c(O)c4oc(-c5ccccc5)cc(=O)c34)[C@H](c3cc(O)c(O)c4oc(-c5ccccc5)cc(=O)c34)[C@H]2C(C)(C)C1,1.44 µM,14.8 µM
COc1cc2[nH]c(C(=O)c3cc(OC)c(OC)c(OC)c3)c(N)c2cc1C#CC1CC1,2.21 µM,> 100 µM
O=c1cc(NC2CCN(CCCc3ccccc3)CC2)c2cc(Cl)ccc2o1,12.9 µM,26.9 µM
O=C1CC2c3ccccc3CCC2c2ccccc21 (centres undefined),,90.6 µM
Nc1nc(F)nc2c1ncn2C1OC(CO)C(O)C1O (centres undefined),41.6 µM,> 100 µM
CCn1c(-c2ccc(OC(C)=O)cc2)c(C)c2cc(OC(C)=O)ccc21,,44.1 µM
O=c1cccc(C#CC#CC2=CCCCC2)o1,6.6 µM,11.6 µM
O=C1Nc2ccc(F)cc2/C1=C/c1ccc[nH]1,> 25 µM,> 25 µM
Br[C](Br)(Br)[Hg][c]1ccccc1,14.7 µM,28 µM
COc1ccc(CC2NCCc3cc(OC)c(OC)cc32)cc1Br (centres undefined),,> 100 µM

# Tested on: HOP-62 NSCLC
# Assay: growth of human tumour cells (NCI), 48 h
Compound,GI50,TGI
CC1=C[C@H]2c3c(c(O)c(O)c4oc(-c5ccccc5)cc(=O)c34)[C@H](c3cc(O)c(O)c4oc(-c5ccccc5)cc(=O)c34)[C@H]2C(C)(C)C1,0.76 µM,12.9 µM
COc1cc2[nH]c(C(=O)c3cc(OC)c(OC)c(OC)c3)c(N)c2cc1C#CC1CC1,2.64 µM,> 100 µM
O=c1cc(NC2CCN(CCCc3ccccc3)CC2)c2cc(Cl)ccc2o1,17.3 µM,33.3 µM
O=C1CC2c3ccccc3CCC2c2ccccc21 (centres undefined),,> 100 µM
Nc1nc(F)nc2c1ncn2C1OC(CO)C(O)C1O (centres undefined),13.6 µM,> 79.6 µM
CCn1c(-c2ccc(OC(C)=O)cc2)c(C)c2cc(OC(C)=O)ccc21,,47.7 µM
O=c1cccc(C#CC#CC2=CCCCC2)o1,8.65 µM,16.3 µM
O=C1Nc2ccc(F)cc2/C1=C/c1ccc[nH]1,> 25 µM,> 25 µM
Br[C](Br)(Br)[Hg][c]1ccccc1,13.4 µM,18.7 µM
COc1ccc(CC2NCCc3cc(OC)c(OC)cc32)cc1Br (centres undefined),,> 100 µM

# Tested on: UACC-257 melanoma
# Assay: growth of human tumour cells (NCI), 48 h
Compound,GI50,TGI
CC1=C[C@H]2c3c(c(O)c(O)c4oc(-c5ccccc5)cc(=O)c34)[C@H](c3cc(O)c(O)c4oc(-c5ccccc5)cc(=O)c34)[C@H]2C(C)(C)C1,1.72 µM,9.47 µM
COc1cc2[nH]c(C(=O)c3cc(OC)c(OC)c(OC)c3)c(N)c2cc1C#CC1CC1,> 100 µM,> 100 µM
O=c1cc(NC2CCN(CCCc3ccccc3)CC2)c2cc(Cl)ccc2o1,15.4 µM,30 µM
O=C1CC2c3ccccc3CCC2c2ccccc21 (centres undefined),,73.2 µM
Nc1nc(F)nc2c1ncn2C1OC(CO)C(O)C1O (centres undefined),,> 100 µM
CCn1c(-c2ccc(OC(C)=O)cc2)c(C)c2cc(OC(C)=O)ccc21,,94.9 µM
O=c1cccc(C#CC#CC2=CCCCC2)o1,7.49 µM,12.9 µM
O=C1Nc2ccc(F)cc2/C1=C/c1ccc[nH]1,> 25 µM,> 25 µM
Br[C](Br)(Br)[Hg][c]1ccccc1,13.5 µM,26.7 µM
COc1ccc(CC2NCCc3cc(OC)c(OC)cc32)cc1Br (centres undefined),,45.6 µM

# Tested on: HL-60(TB) leukemia
# Assay: growth of human tumour cells (NCI), 48 h
Compound,GI50,TGI
CC1=C[C@H]2c3c(c(O)c(O)c4oc(-c5ccccc5)cc(=O)c34)[C@H](c3cc(O)c(O)c4oc(-c5ccccc5)cc(=O)c34)[C@H]2C(C)(C)C1,2.33 µM,7.33 µM
COc1cc2[nH]c(C(=O)c3cc(OC)c(OC)c(OC)c3)c(N)c2cc1C#CC1CC1,3.36 µM,22 µM
O=c1cc(NC2CCN(CCCc3ccccc3)CC2)c2cc(Cl)ccc2o1,20.5 µM,49.3 µM
O=C1CC2c3ccccc3CCC2c2ccccc21 (centres undefined),,> 100 µM
Nc1nc(F)nc2c1ncn2C1OC(CO)C(O)C1O (centres undefined),3.3 µM,> 100 µM
CCn1c(-c2ccc(OC(C)=O)cc2)c(C)c2cc(OC(C)=O)ccc21,,42.9 µM
O=c1cccc(C#CC#CC2=CCCCC2)o1,4.77 µM,18.3 µM
O=C1Nc2ccc(F)cc2/C1=C/c1ccc[nH]1,> 25 µM,> 25 µM
Br[C](Br)(Br)[Hg][c]1ccccc1,2.28 µM,6.62 µM
COc1ccc(CC2NCCc3cc(OC)c(OC)cc32)cc1Br (centres undefined),,28.1 µM

# Tested on: UACC-62 melanoma
# Assay: growth of human tumour cells (NCI), 48 h
Compound,GI50,TGI
CC1=C[C@H]2c3c(c(O)c(O)c4oc(-c5ccccc5)cc(=O)c34)[C@H](c3cc(O)c(O)c4oc(-c5ccccc5)cc(=O)c34)[C@H]2C(C)(C)C1,0.516 µM,1.97 µM
COc1cc2[nH]c(C(=O)c3cc(OC)c(OC)c(OC)c3)c(N)c2cc1C#CC1CC1,20.1 µM,> 100 µM
O=c1cc(NC2CCN(CCCc3ccccc3)CC2)c2cc(Cl)ccc2o1,15.1 µM,29.8 µM
O=C1CC2c3ccccc3CCC2c2ccccc21 (centres undefined),,69.6 µM
Nc1nc(F)nc2c1ncn2C1OC(CO)C(O)C1O (centres undefined),89.8 µM,> 100 µM
CCn1c(-c2ccc(OC(C)=O)cc2)c(C)c2cc(OC(C)=O)ccc21,,28.3 µM
O=c1cccc(C#CC#CC2=CCCCC2)o1,2.87 µM,8.56 µM
O=C1Nc2ccc(F)cc2/C1=C/c1ccc[nH]1,> 25 µM,> 25 µM
Br[C](Br)(Br)[Hg][c]1ccccc1,16.4 µM,38.2 µM
COc1ccc(CC2NCCc3cc(OC)c(OC)cc32)cc1Br (centres undefined),,> 77.5 µM
